Laboratory results as given in ChEMBL document CHEMBL3706496, “Therapeutic Drugs” (1999).

What was measured:
Assay type in all cases: ADME, organism-based
[1] = Percentage of administered dose recovered as monocarboxylic acid derivative of mitoxantrone in urine within 48 h of drug administration; set-up: dosed compound id 2.58283e+06, dosed compound name Mitoxantrone; conditions: human, in vivo
[2] = Percentage of administered dose recovered as dicarboxylic acid derivative of mitoxantrone in urine within 48 h of drug administration; conditions: human, in vivo
[3] = Percentage of administered dose recovered as idarubicinol in urine after oral administration; set-up: dosed compound id 2.58283e+06, dosed compound name Idarubicin, route oral; conditions: human, in vivo
[4] = Percentage of administered dose recovered as idarubicinol in urine after intravenous administration; set-up: dosed compound id 2.58283e+06, dosed compound name Idarubicin, route intravenous; conditions: human, in vivo
[5] = Percentage of administered dose recovered as unchanged drug in urine after intravenous administration; set-up: dosed compound id 2.58283e+06, dosed compound name Idarubicin, route intravenous; conditions: human, read-out: Compound recovery
[6] = Percentage of administered dose recovered as unchanged drug in urine after oral administration; set-up: dosed compound id 2.58283e+06, dosed compound name Idarubicin, route oral; conditions: human, read-out: Compound recovery
[7] = Percentage of administered dose recovered as unchanged drug in urine within 48 h of drug administration; set-up: dosed compound id 2.58283e+06, dosed compound name Mitoxantrone; conditions: human, read-out: Compound recovery

O=C(O)CNCCNc1ccc(NCCNCCO)c2c1C(=O)c1c(O)ccc(O)c1C2=O
Compound recovery [1]: 0.5%

O=C(O)CNCCNc1ccc(NCCNCC(=O)O)c2c1C(=O)c1c(O)ccc(O)c1C2=O
Compound recovery [2]: 0.3%

CC(O)[C@]1(O)Cc2c(O)c3c(c(O)c2[C@@H](O[C@H]2C[C@H](N)[C@H](O)[C@H](C)O2)C1)C(=O)c1ccccc1C3=O (some centres not stated)
Compound recovery [3]: 5% | Compound recovery [4]: 15%

CC(=O)[C@]1(O)Cc2c(O)c3c(c(O)c2[C@@H](O[C@H]2C[C@H](N)[C@H](O)[C@H](C)O2)C1)C(=O)c1ccccc1C3=O [IDARUBICIN]
dose excreted [5]: 2% | dose excreted [6]: 0.6%

O=C1c2c(O)ccc(O)c2C(=O)c2c(NCCNCCO)ccc(NCCNCCO)c21 [MITOXANTRONE]
dose excreted at 48 h [7]: 4.4%
